* marks the point of attachment. Biotin = O=C1N[C@H]2[C@H](CS[C@H]2CCCCC(=O)*)N1
Experiments:
Format in all cases: binding, human
[1] = test system: antibodies in antisera from HIV-2 infected persons; assay: ELISA with HIV-2 antibody-positive sera (biotinylated peptides on streptavidin- or avidin-coated plates, unbiotinylated peptides coated directly); conditions: for number borderline / number negative / number positive / percent borderline / percent negative / percent positive: Table 17, HIV-2 positive sera, 21 tested
Experimental: (§1) Where peptides were to be coated directly, stock solutions of the peptides were diluted in sodium carbonate buffer, pH 9.6 and used to coat polystyrene microtiter plates at a peptide concentration of 2 to 5 micrograms per milliliter for 1 hour at 37° C.
(§2) In cases where biotinylated peptides were to be evaluated, plates were first coated with streptavidin in sodium carbonate buffer, pH 9.6 at a concentration of 3 micrograms per milliliter for 1 hour at 37° C. The plates were then washed to remove excess, unbound protein. A working solution of the biotinylated peptide at 1 microgram per milliliter in sodium carbonate buffer was then added to the wells of the microtiter plate and incubated for 1 hours at 37° C.
(§3) Once the plates had been coated with antigen, any remaining free binding sites on the plastic were blocked with casein. After washing, a dilution of the appropriate antisera, usually 1:100, was added to the wells of the plates and incubated for 1 hour at 37° C.
(§4) After washing to remove unbound material, specific antibody binding was detected by incubating the plates with goat anti-human immunoglobulin antibodies conjugated to the enzyme horseradish peroxidase. Following removal of unbound conjugate by washing, a solution containing H2O2 and 3,3′,5,5′-tetramethylbenzidine was added.
(§5) Reactions were stopped after a suitable interval by addition of sulfuric acid. […] Absorbance measurements were made at a wavelength of 450 nanometers and all data are expressed as an optical density value at this wavelength.
The biotinylated peptides were loaded onto microtiter plates which had been coated with streptavidin. Antibody binding to these peptides was compared to antibody binding to the unibiotinylated peptides which were coated directly onto microtiter plates. It is evident that the biotinylated peptides from the HIV-1 or HIV-2 transmembrane proteins bound to streptavidin are recognized very well by antisera from HIV-1 or HIV-2 infected persons respectively. This is in contrast to the unbiotinylated versions of these peptides coated directly onto the polystyrene plates.
(§6) To determine how well biotinylated peptides would function in a mixture when bound to streptavidin- or avidin-coated plates, two mixtures were made of the N-terminally biotinylated versions of the HIV-1 peptides TM-HIV-1 (hereabove referred to as 1a.1) and V3-nm (hereabove referred to as 1b.4), the HIV-2 peptide TM-HIV-2 (hereabove referred to as 2a), and the hepatitis C virus peptides II, IX, and XVIII. Mixture A contained each of the six biotinylated peptides at a concentration of 1 microgram per milliliter (6 micrograms per milliliter peptide, total) while in mixture B, each peptide was present at a concentration of 0.1 microgram per milliliter (0.6 microgram per milliliter peptide, total). The individual peptides were coated at a concentration of 1 microgram per milliliter. For purposes of comparison, mixtures A and B were also coated directly onto the wells of a microtiter plate. Samples from HIV-1, HIV-2, and HCV-seropositive donors were tested and compared to sera from seronegative blood donors. A cut-off absorbance value of 0.250 was used to determine whether a reaction was positive or negative. Absorbance values equal or greater than 0.250 were considered positive while absorbance values below this value were considered negative.
Two glycine residues were added at the N-terminus of each peptide to serve as a spacer and a biotin was coupled to the α-amino group of the resulting N-terminal glycine. The peptides were bound to streptavidin and coated in the wells of microwell plates. HIV-2 antibody-positive sera were used to evaluate these two peptides in an ELISA.

[2] = test system: antibodies in antisera from HIV-1 infected persons; assay: ELISA with HIV-1 antibody-positive sera (biotinylated peptides on streptavidin- or avidin-coated plates, unbiotinylated peptides coated directly)
Experimental: as §1, §2, §3, §4, §5
Experiments were performed to evaluate antibody recognition of short, 10 amino acid-long, N-acetylated peptides corresponding to other contained within the transmembrane proteins of HIV-1 and HIV-2. […] The peptides used for the comparison were as follows:
Antibody binding to these peptides was compared to antibody binding to the unibiotinylated peptides which were coated directly onto microtiter plates.
In order to evaluate antibody recognition of these two peptides, the peptides were bound individually to streptavidin-coated microtiter plates and tested using a panel of antisera from HIV-1 seropositive donors.
as §6
A spacer consisting of two glycine residues was added to the amino terminus.

[3] = ELISA with seronegative / negative control sera (specificity)
Summary of the method: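 Specificity readout is OD at 450 nm (HRP goat anti-human Ig, TMB/H2O2, sulfuric acid stop), with ≥0.250 counted positive. Seronegative donor sera (typically 1:100, 1 h, 37° C) were applied to casein-blocked wells coated with peptide directly or via streptavidin capture of biotinylated peptide.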

[4] = test system: antibodies in sera from HCV-seropositive donors; assay: ELISA with HCV antibody-positive sera (biotinylated peptides on streptavidin- or avidin-coated plates, unbiotinylated peptides coated directly); conditions: Table 8, Avidin
Summary of the method: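 Peptides coated either directly at 2–5 or 3 μg/ml in carbonate buffer pH 9.6, or biotinylated at 1 μg/ml on streptavidin-coated wells (3 μg/ml). Plates casein-blocked, then human sera (1:100 or 1:20) incubated 1 h at 37° C. Bound antibody detected with HRP anti-human Ig/TMB, read as OD450.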

[5] = Table 1, serum 53-3, HIV-2 positive
[6] = Table 1, serum 1400, HIV-2 positive
[7] = Table 1, serum AG, HIV-2 positive
[8] = Table 1, serum 0724, HIV-1 positive
[9] = Table 1, serum PL, HIV-1 positive
[10] = Table 1, serum VE, HIV-1 positive
[11] = Table 1, serum YEMO, HIV-1 positive
[12] = Table 1, serum mm, HIV-1 positive
[13] = Table 1, serum 180, seronegative donor
[14] = Table 1, serum 194, seronegative donor
[15] = Table 1, serum 195, seronegative donor
[16] = Table 1, serum 204, seronegative donor

Row | Substance | optical density (450 nm) [1, 5] | optical density (450 nm) [1, 6] | optical density (450 nm) [1, 7] | optical density (450 nm) [2, 8] | optical density (450 nm) [2, 9] | optical density (450 nm) [2, 10] | optical density (450 nm) [2, 11] | optical density (450 nm) [2, 12] | optical density (450 nm) [3, 13] | optical density (450 nm) [3, 14] | optical density (450 nm) [3, 15] | optical density (450 nm) [3, 16] | number borderline [1] | number negative [1] | number positive [1] | percent borderline [1] [%] | percent negative [1] [%] | percent positive [1] [%] | also measured
1 | Ac-Ile-Trp-Gly-Cys-Ser-Gly-Lys-Leu-Ile-Cys-NH2 (Ac-IWGCSGKLIC-NH2; cysteine pairing not given here) [TM-HIV-1, unbiotinylated N-acetylated decamer of the HIV-1 transmembrane protein] | 0.000 | 0.000 | 0.000 | 0.174 | 0.000 | 0.052 | 0.162 | 0.051 | 0.000 | 0.000 | 0.000 | 0.000 |  |  |  |  |  |  | 
2 | Ac-Ser-Trp-Gly-Cys-Ala-Phe-Arg-Gln-Val-Cys-NH2 (Ac-SWGCAFRQVC-NH2; cysteine pairing not given here) [TM-HIV-2, unbiotinylated N-acetylated decamer of the HIV-2 transmembrane protein] | 0.000 | 0.000 | 0.000 | 0.000 | 0.000 | 0.000 | 0.000 | 0.000 | 0.000 | 0.000 | 0.000 | 0.000 |  |  |  |  |  |  | 
3 | Asn Lys Thr Val Leu Pro Val Thr Ile Met Ser Gly Leu Val Phe His Ser Gln Pro Ile Asn Asp (NKTVLPVTIMSGLVFHSQPIND; printed: Asn Lys Thr Val Leu Pro Val Thr Ile Met Ser Gly Leu Val Phe His Ser Gln Pro Ile Asn Asp) [Peptide V2-239, HIV-2/SIV mm 239 V3; two glycine residues at the N-terminus and biotin] |  |  |  |  |  |  |  |  |  |  |  |  | 2 | 0 | 19 | 9.5 | 0 | 90.5 | 
4 | Asn Lys Thr Val Val Pro Ile Thr Leu Met Ser Gly Leu Val Phe His Ser Gln Pro Ile Asn Lys (NKTVVPITLMSGLVFHSQPINK; printed: Asn Lys Thr Val Val Pro Ile Thr Leu Met Ser Gly Leu Val Phe His Ser Gln Pro Ile Asn Lys) [Peptide V3-GB12, HIV-2 V3; two glycine residues at the N-terminus and biotin] |  |  |  |  |  |  |  |  |  |  |  |  | 0 | 0 | 21 | 0 | 0 | 100 | 
5 | Bio-Gly-Gly-Gly-Ser-Trp-Gly-Cys-Ala-Phe-Arg-Gln-Val-Cys-NH2 (Biotin-GGGSWGCAFRQVC-NH2; cysteine pairing not given here) [TM-HIV-2 Bio] | 2.365 | 1.982 | 2.323 | 0.000 | 0.000 | 0.000 | 0.000 | 0.000 | 0.000 | 0.000 | 0.000 | 0.000 |  |  |  |  |  |  | optical density (450 nm) ([4]; serum 8243 (HCV)): 0.109; optical density (450 nm) ([4]; serum 8247 (HCV)): 0.048; optical density (450 nm) ([4]; serum 8248 (HCV)): 0.046; optical density (450 nm) ([4]; serum 8269 (HCV)): 0.049; optical density (450 nm) ([4]; serum 8273 (HCV)): 0.050; optical density (450 nm) ([4]; serum 8278 (HCV)): 0.045; optical density (450 nm) ([4]; serum 8285 (HCV)): 0.163; optical density (450 nm) ([4]; serum 8290 (HCV)): 0.047; optical density (450 nm) ([4]; serum 8291 (HCV)): 0.050; optical density (450 nm) ([1]; Table 8, serum 1400 (HIV-2), Avidin): 1.781; optical density (450 nm) ([1]; Table 8, serum AG (HIV-2), Avidin): 2.065; optical density (450 nm) ([2]; Table 8, serum 3990 (HIV-1), Avidin): 0.054; optical density (450 nm) ([2]; Table 8, serum DV (HIV-1), Avidin): 0.048; optical density (450 nm) ([2]; Table 8, serum PL (HIV-1), Avidin): 0.051; optical density (450 nm) ([2]; Table 8, serum YS (HIV-1), Avidin): 0.046; optical density (450 nm) ([3]; Table 8, serum 1782 (blood donor), Avidin): 0.057; optical density (450 nm) ([3]; Table 8, serum 1784 (blood donor), Avidin): 0.046; optical density (450 nm) ([3]; Table 8, serum 1785 (blood donor), Avidin): 0.047; optical density (450 nm) ([3]; Table 8, serum 1794 (blood donor), Avidin): 0.090

From patent US6667387B1, “HCV core peptides” (priority 1992, dated 2003)
